Measured values taken from US9161502B2, “Brassica juncea lines with a canola fatty acid profile” (PIONEER HI BRED INTERNATIONAL INC, priority 2007, dated 2015).

Tested on: B. juncea seed
Assay: EMS kill curves: germination of B. juncea seed treated with various concentrations of EMS
Type: in vivo, Brassica juncea
Conditions: for % germination: seeds soaked 18 hours, germination box 25° C., 7 days
Description: A bulk population (99SJ-1309) was created for this experiment from 8 different low glucosinolate and low erucic acid B. juncea breeding lines. These lines were selected for a range of quality and agronomic traits such as oil content and seed size. 500 seeds of the bulk population were used for each treatment of the following experiment. The seeds were soaked in various concentrations EMS for 18 hours and then washed 3 times. A sub-sample of 100 seeds was placed in a germination box at 25° C. for 7 days. After 7 days, the number of seeds that germinated and produced a healthy radicle was calculated. All seeds that were treated with EMS took at least 2 days longer to germinate than controls.
EMS treatment of seed affected the germination rate (FIG. 1, Table 2 and Table 3). […] This experiment was not replicated. Its purpose was to evaluate the effect of EMS on seed germination rate. The first experiment was designed to test a broad range of EMS application rates and the second experiment was to reduce the range of EMS treatment to develop the desirable mutations (Table 3).

For `CCOS(C)(=O)=O` [EMS, ethyl methane sulfonate], the “germination rate versus expectation” value (0.36% EMS treatment rate) was “much lower germination rate than expected”, the germination rate (0.48% EMS, text summary of Experiment 1) was “approximately 50%” and the “delay of germination versus controls” value (all seeds treated with EMS) was “at least 2 days”. The germination rates (highest concentrations of EMS) was “less than 50%”, the “% germination” value (kill curve #1 (Treatment 1), EMS 0.16% w/v) was 93% and the “% germination” value (kill curve #1 (Treatment 1), EMS 0.33% w/v) was 90%. For the same molecule, the “% germination” value (kill curve #1 (Treatment 1), EMS 0.48% w/v) was 61%, the “% germination” value (kill curve #1 (Treatment 1), EMS 0.64% w/v) was 39% and the “% germination” value (kill curve #2 (Treatment 2), EMS 0.36% w/v) was 57%. The “% germination” value (kill curve #2 (Treatment 2), EMS 0.42% w/v) was 68%, the “% germination” value (kill curve #2 (Treatment 2), EMS 0.48% w/v) was 43% and the “% germination” value (kill curve #2 (Treatment 2), EMS 0.56% w/v) was 46%. The “effect on germination rate” value (lowest concentrations (0.16 and 0.33%)) was “little effect on germination rate”.
